For orientation: EC50 means the midpoint of the concentration-response curve. Lower therefore signals greater potency. The term IC50 denotes the point on the concentration scale where inhibition reaches its midpoint. Low readings indicate greater potency, high ones weaker potency.

Consider 20 compounds from patent US20250129101A1, “Compound, Pharmaceutical Composition Comprising the Same and Method for Treating Cancer Using the Same” (NATIONAL TSING HUA UNIVERSITY, priority 2023, published 2025).

Bounds are passed on as bounds.

One assay has as its target T1, KIF2C (Homo sapiens, UniProt Q99661).
T1 construct: KIF2C (216-598 a.a.); 6xHis (C); made in house; host or cells: E. coli BL21 (DE3), pET-28a
Briefly: In vitro validation: KIF2C kinesin activity, malachite green-based phosphate colorimetric assay. The assay is classed as biochemical. The following applies: for EC50: concentration that inhibits 50% of KIF2C activity. As for the experimental part: (§1) The in vitro validation was performed by measuring KIF2C kinesin activity using malachite green-based phosphate colorimetric assay (BioVision). […] The microtubules from porcine brain tubulin (Cytoskeleton) or purified from HEK293 cells in Free-style medium (293Fs) were dissolved in the BRB80 buffer (80 mM PIPES pH 6.8, 1 mM EGTA, 1 mM MgCl2, 1 mM GTP, 1 mM DTT, and 10% DMSO) at 37° C. for 2 hr. Phosphates released from kinesin-mediated ATP hydrolysis was measured by adding 30 μL of the phosphate colorimetric reagent (BioVision), incubated for 10 min, and then measured with absorbance at 650 nm. […] The cell validation was performed by measuring cytotoxicity in MDA-MB-231 cells. The cells were cultured in a 96-well plate at a confluence of 2000 cells/well with indicates compounds for specific days. When the time was up, the culture medium in the plate was aspirated and replaced with a prepared CellTiter-Glo reagent (Promega)/DMEM mixture (1:1 mix of CellTiter-Glo reagent and serum-supplemented DMEM). After incubation for 10 min, the luminescence was measured with an ELISA plate reader to determine the cell viability.
In vitro kinesin activity was measured using malachite green-based phosphate colorimetric assay (BioVision). […] The microtubules from porcine brain tubulin (Cytoskeleton) or purified from HEK293 cells in Free-style medium (293Fs) were dissolved in the BRB80 buffer (80 mM PIPES pH 6.8, 1 mM EGTA, 1 mM MgCl2, 1 mM GTP, 1 mM DTT, and 10% DMSO) at 37° C. for 2 hr. Phosphates released from kinesin-mediated ATP hydrolysis was measured by adding 30 μL of the phosphate colorimetric reagent (BioVision), incubated for 10 min, and then measured with absorbance at 650 nm.
Constructs of sN+M regions of KIF2C (216-598 a.a.), KIF2A (181-562 a.a.) and KIF2B (171-553 a.a.) with C-terminal 6×His tag were subcloned into pET-28a vector and expressed in BL21 (DE3) E. coli cells (Novartis) cultured in Luria-Bertani medium supplemented with 50 ug/mL kanamycin at 37° C. After induction with 0.8 mM IPTG for 18 hr at 20° C., the cells were pelleted by centrifugation at 6000 rpm for 30 min at 10° C. The collected pellets were resuspended in 30 mL of buffer A (20 mM Tris-HCl pH 7.5, 500 mM NaCl, 10 mM imidazole, 1% CHAPS, and 1 mM PMSF) and next subjected to a high-pressure homogenizer (EmulsiFlex-C3) for cell lysis. After removing the cell debris by centrifugation at 13000 rpm for 30 min at 10° C., the recombinant Kinesin-13 in the supernatant was purified using nickel affinity chromatography. Firstly, the supernatant was applied to the Ni-NTA column (GE Healthcare) pre-equilibrated with buffer A. Secondly, the column was washed with 10× column volumes of buffer A to remove the unwanted proteins. The washed column was then eluted with 10× column volumes of buffer containing increasing concentrations of imidazole (40, 100, 300, 1000 mM), and the majority of the recombinant Kinesin-13 protein was eventually obtained in a fraction of 300 mM imidazole. The fractions containing the recombinant Kinesin-13 were subsequently concentrated in the buffer B (20 mM Tris-HCl pH 7.5, 10 mM imidazole, 50 mM NaCl, 2 mM DTT) using an Amicon® Ultra filter (Millipore) and subjected to cation exchange column (Capto S, GE Healthcare) for further purification. The recombinant Kinesin-13 was then eluted in elution buffer (20 mM Tris-HCl pH 7.5 and 2 mM DTT) containing 400 mM of NaCl and stored at −80° C. for long-term storage.

Another assay concerns MDA-MB-231 cells. In words: Cell validation: cytotoxicity in MDA-MB-231 cells (CellTiter-Glo). The following applies: cytotoxicity in MDA-MB-231 cells; for IC50: Homo sapiens. Format: cell-based. The procedure: as §1
The cancer cells were cultured in a 96-well plate at a confluence of 1000-2000 cells/well with indicated drugs for specific days. When the time was up, the culture medium in the plate was aspirated and replaced with a prepared CellTiter-Glo reagent/DMEM mixture (1:1 mix of CellTiter-Glo reagent and serum-supplemented DMEM). After incubation for 10 min, the luminescence (proportional to the number of living cells) was measured with an ELISA plate reader to determine the cell viability.
(In general: ATP-based viability assays read luminescence as a measure of living cells.)

T1 sequence (Q99661 216-598): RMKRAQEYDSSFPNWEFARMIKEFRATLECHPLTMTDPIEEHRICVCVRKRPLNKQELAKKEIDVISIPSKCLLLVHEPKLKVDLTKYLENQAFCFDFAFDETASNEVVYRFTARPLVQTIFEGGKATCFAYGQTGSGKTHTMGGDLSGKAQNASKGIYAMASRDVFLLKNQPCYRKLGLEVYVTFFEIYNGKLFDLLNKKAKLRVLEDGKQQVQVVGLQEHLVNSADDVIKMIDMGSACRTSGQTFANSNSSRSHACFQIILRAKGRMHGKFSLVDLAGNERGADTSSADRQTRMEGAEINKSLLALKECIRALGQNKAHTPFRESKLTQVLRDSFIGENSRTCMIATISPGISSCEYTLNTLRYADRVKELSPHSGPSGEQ

With `CCOC(=O)C1=C(C)N=c2s/c(=C\c3ccc(OCC(=O)N4CCC(N5CCN(C)CC5)CC4)cc3)c(=O)n2C1c1ccc(N(C)C)cc1` (centres unmarked) [Compound 150], the EC50 at KIF2C was in the range of 50 to 100 µM. This compound showed an IC50 in the assay on MDA-MB-231 cells of 20 to 50 µM.

Compound `CC1=C(C(=O)OC(C)C)C(c2cccc(Cl)c2)n2c(s/c(=C\c3ccc(OCC(=O)O)cc3)c2=O)=N1` (centres unmarked) [15S0 (66), (Z)-2-(4-((5-(3-chlorophenyl)-6-(isopropoxycarbonyl)-7-methyl-3-oxo-5H-thiazolo[3,2-a]pyrimidin-2(3H)-ylidene)methyl)phenoxy)acetic acid] registered an EC50 on KIF2C of over 100 µM. Further, the IC50 with MDA-MB-231 cells was over 50 µM.

Compound `CCOC(=O)C1=C(C)N=c2s/c(=C\c3ccc(OCC(=O)OC)cc3)c(=O)n2[C@H]1c1ccc(Cl)cc1` [45S0 (129)] gave an EC50 at KIF2C of over 100 µM. Also, the IC50 with MDA-MB-231 cells was over 50 µM.

In turn, `CC1=C(C(=O)OC(C)C)C(c2ccc(F)cc2)n2c(s/c(=C\c3ccc(OCC(=O)O)cc3)c2=O)=N1` (centres unmarked) [9S0 (32), (4-(((2Z)-5-(4-fluorophenyl)-7-methyl-3-oxo-6-((propan-2-yloxy)carbonyl)-5H-[1,3]thiazolo[3,2-a]pyrimidin-2(3H)-ylidene)methyl)phenoxy)acetic acid] had an EC50 at KIF2C of under 50 µM. The same compound returned an IC50 in the assay on MDA-MB-231 cells of over 50 µM.

Regarding `CCOC(=O)C1=C(C)N=c2s/c(=C\c3ccc(OCC(=O)OC)cc3)c(=O)n2[C@@H]1c1ccc(Cl)cc1` [44S0 (128)], the EC50 at KIF2C was over 100 µM. The IC50 in the assay on MDA-MB-231 cells is over 50 µM.

Consider `CC1=C(C(=O)OC(C)C)C(c2ccc(Cl)cc2)n2c(s/c(=C\c3ccc(OCC(=O)N4CCC(N5CCN(C)CC5)CC4)cc3)c2=O)=N1` (centres unmarked) [24S0 (19), isopropyl (Z)-5-(4-chlorophenyl)-7-methyl-2-(4-(2-(4-(4-methylpiperazin-1-yl)piperidin-1-yl)-2-oxoethoxy)benzylidene)-3-oxo-2,3-dihydro-5H-thiazolo[3,2-a]pyrimidine-6-carboxylate], for which, at KIF2C, the EC50 was under 50 µM. In addition, in the assay with MDA-MB-231 cells, the “Cell validation (IC50)” value is recorded as “+ + + +”.

At KIF2C, `CCOC(=O)C1=C(C)N=c2s/c(=C\c3ccc(OCC(=O)N4CCN(C)CC4)cc3)c(=O)n2C1c1ccc(N(C)C)cc1` (centres unmarked) [Compound 143] gave an EC50 of 50 to 100 µM. The compound further yielded an IC50 in the assay with MDA-MB-231 cells of 20 to 50 µM.

As to `CC1=C(C(=O)OC(C)C)C(c2ccc(Cl)cc2)n2c(s/c(=C\c3ccc4c(c3)OCO4)c2=O)=N1` (centres unmarked) [34S0 (24), isopropyl (Z)-2-(benzo[d][1,3]dioxol-5-ylmethylene)-5-(4-chlorophenyl)-7-methyl-3-oxo-2,3-dihydro-5H-thiazolo[3,2-a]pyrimidine-6-carboxylate], the EC50 at KIF2C was over 100 µM. Also, the IC50 with MDA-MB-231 cells was over 50 µM.

For `CC1=C(C(=O)OC(C)(C)C)C(c2ccc(N(C)C)cc2)n2c(s/c(=C\c3ccc(OCC(=O)N4CCN(C)CC4)cc3)c2=O)=N1` (centres unmarked) [Compound 144], the EC50 at KIF2C is 50 to 100 µM. In the assay with MDA-MB-231 cells, this compound gave a half-maximal inhibitory concentration (IC50) of 20 to 50 µM.

As for `CCOC(=O)C1=C(C)N=c2s/c(=C\c3ccc(OCC(=O)N4CCN(C)CC4)cc3)c(=O)n2C1c1ccc(Cl)cc1` (centres unmarked) [49S0 (94)], the EC50 on KIF2C lay in the range of 50 to 100 µM. Also, in the assay on MDA-MB-231 cells, the “Cell validation (IC50)” value is “+ +”.

Regarding `CC1=C(C(=O)OC(C)C)C(c2ccc(-n3ccnc3)cc2)n2c(s/c(=C\c3ccc(OCC(=O)O)cc3)c2=O)=N1` (centres unmarked) [52S0 (45), (Z)-2-(4-((5-(4-(1H-imidazol-1-yl)phenyl)-6-(isopropoxycarbonyl)-7-methyl-3-oxo-5H-thiazolo[3,2-a]pyrimidin-2(3H)-ylidene)methyl)phenoxy)acetic acid], the concentration for a half-maximal effect (EC50) at KIF2C is over 100 µM. In the assay with MDA-MB-231 cells, this compound showed an IC50 of over 50 µM.

`CC1=C(C(=O)OC(C)C)C(c2ccc(C(F)(F)F)cc2)n2c(s/c(=C\c3ccc(OCC(=O)N4CCN(C)CC4)cc3)c2=O)=N1` (centres unmarked) [Compound 141] displayed an EC50 on KIF2C of under 50 µM. For the same compound, the IC50 in the assay with MDA-MB-231 cells lay within 20 to 50 µM.

`CC1=C(C(=O)OC(C)C)C(c2ccc(Cl)cc2)n2c(s/c(=C\c3ccc(OCC(=O)N4CCN(C5CCCCC5)CC4)cc3)c2=O)=N1` (centres unmarked) [22S0 (17), propan-2-yl (2Z)-5-(4-chlorophenyl)-2-(4-(2-(4-cyclohexylpiperazin-1-yl)-2-oxoethoxy)benzylidene)-7-methyl-3-oxo-2,3-dihydro-5H-[1,3]thiazolo[3,2-a]pyrimidine-6-carboxylate]: the EC50 at KIF2C is over 100 µM. Also, the IC50 with MDA-MB-231 cells was over 50 µM.

In the case of `CCOC(=O)C1=C(C)N=c2s/c(=C\c3ccc(OCC(=O)N4CCC(N5CCN(C)CC5)CC4)cc3)c(=O)n2C1c1ccc(Cl)cc1` (centres unmarked) [50S0 (99)], the 50% effective concentration (EC50) at KIF2C was under 50 µM. Further, the “Cell validation (IC50)” value in the assay with MDA-MB-231 cells was “+ + + +”.

In the case of `COc1ccc(C2C(C(=O)OC(C)C)=C(C)N=c3s/c(=C\c4ccc(OCC(=O)N5CCC(N6CCN(C)CC6)CC5)cc4)c(=O)n32)cc1` (centres unmarked) [43S0 (62), isopropan-2-yl (2Z)-5-(4-chlorophenyl)-7-methyl-2-(4-(2-(4-(4-methylpiperazin-1-yl)piperidin-1-yl)-2-oxoethoxy)benzylidene)-3-oxo-2,3-dihydro-5H-[1,3]thiazolo[3,2-a]pyrimidine-6-carboxylate], the EC50 at KIF2C fell in the range of 50 to 100 µM. The “Cell validation (IC50)” value with MDA-MB-231 cells is listed as “+ + + +”.

On KIF2C, `CCOC(=O)C1=C(C)N=c2s/c(=C\c3ccc(OCC(=O)OC)cc3)c(=O)n2C1c1ccc(Cl)cc1` (centres unmarked) [35S0 (110), ethyl (Z)-5-(4-chlorophenyl)-2-(4-(2-methoxy-2-oxoethoxy)benzylidene)-7-methyl-3-oxo-2,3-dihydro-5H-thiazolo[3,2-a]pyrimidine-6-carboxylate] yielded an EC50 of over 100 µM. Moreover, the IC50 with MDA-MB-231 cells lay in the range of 20 to 50 µM.

Take `CCN1CCN(C(=O)COc2ccc(/C=c3\sc4n(c3=O)C(c3ccc(C)cc3)C(C(=O)OC(C)C)=C(C)N=4)cc2)CC1` (centres unmarked) [18S0 (51), isopropyl (Z)-2-(4-(2-(4-ethylpiperazin-1-yl)-2-oxoethoxy)benzylidene)-7-methyl-3-oxo-5-(p-tolyl)-2,3-dihydro-5H-thiazolo[3,2-a]pyrimidine-6-carboxylate]: the EC50 at KIF2C fell in the range of 50 to 100 µM. Further, the “Cell validation (IC50)” value with MDA-MB-231 cells was “+ +”.

The compound `COc1ccc(C2C(C(=O)OC(C)C)=C(C)N=c3s/c(=C\c4ccc(OCC(=O)N5CCN(C)CC5)cc4)c(=O)n32)cc1` (centres unmarked) [42S0 (61), isopropyl (Z)-5-(4-methoxyphenyl)-7-methyl-2-(4-(2-(4-methylpiperazin-1-yl)-2-oxoethoxy)benzylidene)-3-oxo-2,3-dihydro-5H-thiazolo[3,2-a]pyrimidine-6-carboxylate] yielded an EC50 on KIF2C of over 100 µM. Besides, the half-inhibitory concentration (IC50) in the assay with MDA-MB-231 cells fell in the range of 20 to 50 µM.

As for `CC1=C(C(=O)OC(C)C)C(c2ccc(Cl)cc2)n2c(s/c(=C\c3ccc(OCC(=O)N4CCC(N5CCN(C)CC5)CC4)cc3)c2=O)=N1.O=C(O)/C=C\C(=O)O` (centres unmarked) [24S9 (135), isopropyl (Z)-5-(4-chlorophenyl)-7-methyl-2-(4-(2-(4-(4-methylpiperazin-1-yl)piperidin-1-yl)-2-oxoethoxy)benzylidene)-3-oxo-2,3-dihydro-5H-thiazolo[3,2-a]pyrimidine-6-carboxylate maleate], the “Cell validation (IC50)” value in the assay on MDA-MB-231 cells was “+ + + +”.

Turning to `COC(=O)Nc1nc2ccc(C(=O)c3cccs3)cc2[nH]1` [nocodazole, reference compound], on KIF2C (1 μM nocodazole), the “KIF2C activity in reaction containing nocodazole (in words)” value is listed as “largely reduced”.
